Data published in article PMC8364686, “Safety, tolerability, pharmacokinetics and pharmacodynamics of single oral doses of BI 187004, an inhibitor of 11beta-hydroxysteroid dehydrogenase-1, in healthy male volunteers with overweight or obesity” (Clinical Diabetes and Endocrinology, 2021).
Entries after “also recorded” stand apart in the source; their conditions may differ.

Key:
[1] = test system: hypothalamus–pituitary–adrenal axis hormones; experiment: Hormones of the HPA axis: difference from baseline; type: in vivo, human
Experimental: (§1) Safety and tolerability of BI 187004 were assessed in a descriptive way using the following investigations: recording of adverse events, clinical laboratory parameters (haematology, coagulation, enzymes, substrates, electrolytes, hormones, and urinalysis), vital signs (blood pressure, puls rate), 12-lead ECG (electrocardiogram) with special attention to QTc prolongation, and physical examination (occurrence of findings).

[2] = test system: healthy male volunteers with overweight or obesity; experiment: Safety and tolerability (adverse events, clinical laboratory, vital signs, ECG); type: in vivo, human
Experimental: as §1

N#Cc1ccc2c(c1)[C@H]1CCCN(C(=O)c3ccc4[nH]cnc4c3)[C@H]1C2 [BI 187004]
ACTH mean difference from baseline ([1]; 2.5 mg single oral dose, 24:00): 0.59 pmol/L
Androstenedione mean difference from baseline ([1]; 2.5 mg single oral dose, 24:00): 0.2 nmol/L
Cortisol mean difference from baseline ([1]; 2.5 mg single oral dose, 24:00): -77.1 nmol/L
DHEA-s mean difference from baseline ([1]; 2.5 mg single oral dose, 24:00): 0.7 µmol/L
SHBG mean difference from baseline ([1]; 2.5 mg single oral dose, 24:00): 2.6 nmol/L
Total Testosterone mean difference from baseline ([1]; 2.5 mg single oral dose, 24:00): 0.1 nmol/L
ACTH mean difference from baseline ([1]; 2.5 mg single oral dose, 96:00): -0.46 pmol/L
Androstenedione mean difference from baseline ([1]; 2.5 mg single oral dose, 96:00): -1.8 nmol/L
Cortisol mean difference from baseline ([1]; 2.5 mg single oral dose, 96:00): -65.3 nmol/L
DHEA-s mean difference from baseline ([1]; 2.5 mg single oral dose, 96:00): 2.1 µmol/L
SHBG mean difference from baseline ([1]; 2.5 mg single oral dose, 96:00): -0.1 nmol/L
Total Testosterone mean difference from baseline ([1]; 2.5 mg single oral dose, 96:00): -0.3 nmol/L
ACTH mean difference from baseline ([1]; 5 mg single oral dose, 24:00): 0.53 pmol/L
Androstenedione mean difference from baseline ([1]; 5 mg single oral dose, 24:00): 1.2 nmol/L
Cortisol mean difference from baseline ([1]; 5 mg single oral dose, 24:00): 1.8 nmol/L
DHEA-s mean difference from baseline ([1]; 5 mg single oral dose, 24:00): 1.6 µmol/L
SHBG mean difference from baseline ([1]; 5 mg single oral dose, 24:00): 3.0 nmol/L
Total Testosterone mean difference from baseline ([1]; 5 mg single oral dose, 24:00): -0.9 nmol/L
ACTH mean difference from baseline ([1]; 5 mg single oral dose, 96:00): -1.65 pmol/L
Androstenedione mean difference from baseline ([1]; 5 mg single oral dose, 96:00): -3.7 nmol/L
Cortisol mean difference from baseline ([1]; 5 mg single oral dose, 96:00): -75.0 nmol/L
DHEA-s mean difference from baseline ([1]; 5 mg single oral dose, 96:00): 0.9 µmol/L
SHBG mean difference from baseline ([1]; 5 mg single oral dose, 96:00): 2.7 nmol/L
Total Testosterone mean difference from baseline ([1]; 5 mg single oral dose, 96:00): -0.7 nmol/L
ACTH mean difference from baseline ([1]; 10 mg single oral dose, 24:00): 0.78 pmol/L
Androstenedione mean difference from baseline ([1]; 10 mg single oral dose, 24:00): 1.3 nmol/L
Cortisol mean difference from baseline ([1]; 10 mg single oral dose, 24:00): -78.7 nmol/L
DHEA-s mean difference from baseline ([1]; 10 mg single oral dose, 24:00): 1.2 µmol/L
SHBG mean difference from baseline ([1]; 10 mg single oral dose, 24:00): 3.4 nmol/L
Total Testosterone mean difference from baseline ([1]; 10 mg single oral dose, 24:00): -0.2 nmol/L
ACTH mean difference from baseline ([1]; 10 mg single oral dose, 96:00): -1.35 pmol/L
Androstenedione mean difference from baseline ([1]; 10 mg single oral dose, 96:00): -3.4 nmol/L
Cortisol mean difference from baseline ([1]; 10 mg single oral dose, 96:00): -128.8 nmol/L
DHEA-s mean difference from baseline ([1]; 10 mg single oral dose, 96:00): 1.9 µmol/L
SHBG mean difference from baseline ([1]; 10 mg single oral dose, 96:00): 0.2 nmol/L
Total Testosterone mean difference from baseline ([1]; 10 mg single oral dose, 96:00): -2.0 nmol/L
ACTH mean difference from baseline ([1]; 20 mg single oral dose, 24:00): 1.53 pmol/L
Androstenedione mean difference from baseline ([1]; 20 mg single oral dose, 24:00): 3.7 nmol/L
Cortisol mean difference from baseline ([1]; 20 mg single oral dose, 24:00): 18.4 nmol/L
DHEA-s mean difference from baseline ([1]; 20 mg single oral dose, 24:00): 2.2 µmol/L
SHBG mean difference from baseline ([1]; 20 mg single oral dose, 24:00): 2.9 nmol/L
Total Testosterone mean difference from baseline ([1]; 20 mg single oral dose, 24:00): -1.3 nmol/L
ACTH mean difference from baseline ([1]; 20 mg single oral dose, 96:00): -0.58 pmol/L
Androstenedione mean difference from baseline ([1]; 20 mg single oral dose, 96:00): 3.8 nmol/L
Cortisol mean difference from baseline ([1]; 20 mg single oral dose, 96:00): -34.1 nmol/L
DHEA-s mean difference from baseline ([1]; 20 mg single oral dose, 96:00): 2.1 µmol/L
SHBG mean difference from baseline ([1]; 20 mg single oral dose, 96:00): 1.3 nmol/L
Total Testosterone mean difference from baseline ([1]; 20 mg single oral dose, 96:00): -1.0 nmol/L
ACTH mean difference from baseline ([1]; 40 mg single oral dose, 24:00): 1.44 pmol/L
Androstenedione mean difference from baseline ([1]; 40 mg single oral dose, 24:00): 3.7 nmol/L
Cortisol mean difference from baseline ([1]; 40 mg single oral dose, 24:00): -48.8 nmol/L
DHEA-s mean difference from baseline ([1]; 40 mg single oral dose, 24:00): 1.7 µmol/L
SHBG mean difference from baseline ([1]; 40 mg single oral dose, 24:00): 0.6 nmol/L
Total Testosterone mean difference from baseline ([1]; 40 mg single oral dose, 24:00): -0.5 nmol/L
ACTH mean difference from baseline ([1]; 40 mg single oral dose, 96:00): -0.01 pmol/L
Androstenedione mean difference from baseline ([1]; 40 mg single oral dose, 96:00): 0.1 nmol/L
Cortisol mean difference from baseline ([1]; 40 mg single oral dose, 96:00): -75.5 nmol/L
DHEA-s mean difference from baseline ([1]; 40 mg single oral dose, 96:00): 2.3 µmol/L
SHBG mean difference from baseline ([1]; 40 mg single oral dose, 96:00): -1.8 nmol/L
Total Testosterone mean difference from baseline ([1]; 40 mg single oral dose, 96:00): -0.8 nmol/L
ACTH mean difference from baseline ([1]; 80 mg single oral dose, 24:00): 4.69 pmol/L
Androstenedione mean difference from baseline ([1]; 80 mg single oral dose, 24:00): 8.1 nmol/L
Cortisol mean difference from baseline ([1]; 80 mg single oral dose, 24:00): 102.6 nmol/L
DHEA-s mean difference from baseline ([1]; 80 mg single oral dose, 24:00): 2.6 µmol/L
SHBG mean difference from baseline ([1]; 80 mg single oral dose, 24:00): 2.1 nmol/L
Total Testosterone mean difference from baseline ([1]; 80 mg single oral dose, 24:00): 0.8 nmol/L
ACTH mean difference from baseline ([1]; 80 mg single oral dose, 96:00): 1.36 pmol/L
Androstenedione mean difference from baseline ([1]; 80 mg single oral dose, 96:00): 0.5 nmol/L
Cortisol mean difference from baseline ([1]; 80 mg single oral dose, 96:00): -64.4 nmol/L
DHEA-s mean difference from baseline ([1]; 80 mg single oral dose, 96:00): 2.4 µmol/L
SHBG mean difference from baseline ([1]; 80 mg single oral dose, 96:00): -1.3 nmol/L
Total Testosterone mean difference from baseline ([1]; 80 mg single oral dose, 96:00): 0.6 nmol/L
ACTH mean difference from baseline ([1]; 160 mg single oral dose, 24:00): 1.34 pmol/L
Androstenedione mean difference from baseline ([1]; 160 mg single oral dose, 24:00): 2.6 nmol/L
Cortisol mean difference from baseline ([1]; 160 mg single oral dose, 24:00): -49.2 nmol/L
DHEA-s mean difference from baseline ([1]; 160 mg single oral dose, 24:00): 1.6 µmol/L
SHBG mean difference from baseline ([1]; 160 mg single oral dose, 24:00): 1.9 nmol/L
Total Testosterone mean difference from baseline ([1]; 160 mg single oral dose, 24:00): 1.0 nmol/L
ACTH mean difference from baseline ([1]; 160 mg single oral dose, 96:00): 0.05 pmol/L
Androstenedione mean difference from baseline ([1]; 160 mg single oral dose, 96:00): 1.5 nmol/L
Cortisol mean difference from baseline ([1]; 160 mg single oral dose, 96:00): -69.9 nmol/L
DHEA-s mean difference from baseline ([1]; 160 mg single oral dose, 96:00): 2.2 µmol/L
SHBG mean difference from baseline ([1]; 160 mg single oral dose, 96:00): -0.8 nmol/L
Total Testosterone mean difference from baseline ([1]; 160 mg single oral dose, 96:00): 2.4 nmol/L
ACTH mean difference from baseline ([1]; 240 mg single oral dose, 24:00): 0.87 pmol/L
Androstenedione mean difference from baseline ([1]; 240 mg single oral dose, 24:00): 5.0 nmol/L
Cortisol mean difference from baseline ([1]; 240 mg single oral dose, 24:00): -7.3 nmol/L
DHEA-s mean difference from baseline ([1]; 240 mg single oral dose, 24:00): 1.6 µmol/L
SHBG mean difference from baseline ([1]; 240 mg single oral dose, 24:00): 2.3 nmol/L
Total Testosterone mean difference from baseline ([1]; 240 mg single oral dose, 24:00): -2.8 nmol/L
ACTH mean difference from baseline ([1]; 240 mg single oral dose, 96:00): -0.27 pmol/L
Androstenedione mean difference from baseline ([1]; 240 mg single oral dose, 96:00): 2.7 nmol/L
Cortisol mean difference from baseline ([1]; 240 mg single oral dose, 96:00): -5.1 nmol/L
DHEA-s mean difference from baseline ([1]; 240 mg single oral dose, 96:00): 2.3 µmol/L
SHBG mean difference from baseline ([1]; 240 mg single oral dose, 96:00): 2.5 nmol/L
Total Testosterone mean difference from baseline ([1]; 240 mg single oral dose, 96:00): -2.4 nmol/L
ACTH mean difference from baseline ([1]; 360 mg single oral dose, 24:00): 1.30 pmol/L
Androstenedione mean difference from baseline ([1]; 360 mg single oral dose, 24:00): 3.2 nmol/L
Cortisol mean difference from baseline ([1]; 360 mg single oral dose, 24:00): -40.0 nmol/L
DHEA-s mean difference from baseline ([1]; 360 mg single oral dose, 24:00): 1.2 µmol/L
SHBG mean difference from baseline ([1]; 360 mg single oral dose, 24:00): 0.9 nmol/L
Total Testosterone mean difference from baseline ([1]; 360 mg single oral dose, 24:00): -0.3 nmol/L
ACTH mean difference from baseline ([1]; 360 mg single oral dose, 96:00): 0.38 pmol/L
Androstenedione mean difference from baseline ([1]; 360 mg single oral dose, 96:00): -0.3 nmol/L
Cortisol mean difference from baseline ([1]; 360 mg single oral dose, 96:00): -132.9 nmol/L
DHEA-s mean difference from baseline ([1]; 360 mg single oral dose, 96:00): 1.6 µmol/L
SHBG mean difference from baseline ([1]; 360 mg single oral dose, 96:00): -2.2 nmol/L
Total Testosterone mean difference from baseline ([1]; 360 mg single oral dose, 96:00): 0.7 nmol/L
Incidence of headache ([2]; 3 out of 54 subjects receiving BI 187004): 5.6%
Incidence of drug-related adverse events ([2]; all 9 BI 187004 dose groups (9 subjects)): 16.7%
Subjects reporting at least 1 adverse event ([2]; all BI 187004 dose groups (15 subjects)): 27.8%
Clinical laboratory evaluations, vital signs, ECG findings ([2]; single oral doses 2.5–360 mg): No clinically relevant deviations; also recorded: no notable findings
Deaths, AEs leading to discontinuation, serious AEs ([2]; single oral doses 2.5–360 mg): no serious AEs
Hypoglycemic episodes ([2]; single oral doses 2.5–360 mg): No hypoglycemic episodes
Safety and tolerability ([2]; single oral doses 2.5–360 mg): well tolerated and safe; also recorded: safe and well tolerated
